Values quoted from earlier work as cited in patent US7655257B2, “Sustained delivery of an active agent using an implantable system” (Intarcia Therapeutics, Inc., priority 1996, dated 2010).

How the values were obtained:
[1] = system: prostatic tumors in Noble and Dunning male rats and DMBA-induced mammary tumors in female rats
[2] = system: gonadotropin secretion
[3] = continuous administration, humans

In the case of `CCNC(=O)[C@@H]1CCCN1C(=O)[C@H](CCCNC(=N)N)NC(=O)[C@H](CC(C)C)NC(=O)[C@@H](CC(C)C)NC(=O)[C@H](Cc1ccc(O)cc1)NC(=O)[C@H](CO)NC(=O)[C@H](Cc1c[nH]c2ccccc12)NC(=O)[C@H](Cc1c[nH]cn1)NC(=O)[C@@H]1CCC(=O)N1` [Leuprolide acetate], the “growth of hormone-dependent tumors” value [1] is given as “inhibition of the growth”, the “level of LH and FSH” value [2, 3] is given as “decreased level of LH and FSH” and the testosterone in males [2, 3] is given as “reduced to castrate levels”. For the same compound, the “activity when given orally” value ([2]; oral) was “not active”.
